Measurements as given in patent US20030134848A1, “Substituted 1-aza-2-imino-heterocycles and their use as nicotinic acetylcholin receptors activators” (priority 2000, published 2003).

biological target: T1, human α4β2 subtype of nicotinic acetylcholine receptors (Homo sapiens, UniProt P17787+P43681); test: Agonist activity at human α4β2 nicotinic acetylcholine receptors expressed in Xenopus oocytes (membrane potential holding method); type: cell-based; conditions: 100 μM test compound vs response at 10 μM acetylcholine (100%)
T1 construct: expressed in transfected cells; host or cells: Xenopus laevis oocytes injected with hnACh-R α4 and β2 cRNA (pSP64 polyA vector)
T1 sequence (P43681 29-627 limits assumed): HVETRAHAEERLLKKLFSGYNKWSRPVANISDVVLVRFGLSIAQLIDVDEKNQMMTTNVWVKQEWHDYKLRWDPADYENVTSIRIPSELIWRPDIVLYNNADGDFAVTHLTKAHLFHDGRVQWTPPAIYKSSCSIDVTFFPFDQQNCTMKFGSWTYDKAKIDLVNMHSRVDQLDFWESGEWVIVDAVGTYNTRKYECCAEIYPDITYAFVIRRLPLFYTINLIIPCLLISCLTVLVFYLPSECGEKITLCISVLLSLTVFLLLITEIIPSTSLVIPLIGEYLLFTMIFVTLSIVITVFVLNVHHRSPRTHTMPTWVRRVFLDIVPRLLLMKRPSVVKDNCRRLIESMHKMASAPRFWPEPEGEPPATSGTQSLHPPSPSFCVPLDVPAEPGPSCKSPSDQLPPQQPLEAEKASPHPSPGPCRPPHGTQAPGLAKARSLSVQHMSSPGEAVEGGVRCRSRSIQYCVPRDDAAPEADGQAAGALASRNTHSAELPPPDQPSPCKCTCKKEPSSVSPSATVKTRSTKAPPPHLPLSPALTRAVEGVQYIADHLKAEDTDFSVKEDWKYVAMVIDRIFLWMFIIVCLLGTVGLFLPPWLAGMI
T1 sequence (P17787 26-502): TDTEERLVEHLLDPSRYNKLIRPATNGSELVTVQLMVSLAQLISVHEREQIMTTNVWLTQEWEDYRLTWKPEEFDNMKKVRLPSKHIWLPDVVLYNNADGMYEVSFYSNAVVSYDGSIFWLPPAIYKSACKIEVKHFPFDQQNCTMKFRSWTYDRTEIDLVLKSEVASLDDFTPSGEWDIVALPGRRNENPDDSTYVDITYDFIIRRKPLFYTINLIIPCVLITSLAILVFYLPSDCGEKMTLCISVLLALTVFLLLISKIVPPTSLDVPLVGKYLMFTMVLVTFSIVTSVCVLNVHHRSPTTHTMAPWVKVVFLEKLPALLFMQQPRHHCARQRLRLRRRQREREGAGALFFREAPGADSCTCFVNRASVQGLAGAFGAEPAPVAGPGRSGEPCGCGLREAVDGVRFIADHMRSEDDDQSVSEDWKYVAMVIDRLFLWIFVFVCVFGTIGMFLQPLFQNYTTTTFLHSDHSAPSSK
Procedure: The agonist effect in human α4β2 subtype of nicotinic acetylcholine receptors are examined by using human nicotinic acetylcholine receptors prepared in oocytes of Xenopus laevis, which is injected with cRNA from the corresponding cloning cDNA of human α4 and β2 subunits of nicotinic acetylcholine receptors, and to measure the expression of the electric response by adding the test compounds to perfusion solution by means of membrane potential holding method.
The agonist activities of the compounds of the present invention at human 4β2 subtype of nicotinic acetylcholine receptors was evaluated by the following method, which was modified method described by Papke R. L., Thinschmidt J. S., Moulton B. A., Meyer E. M. & Poirier A., Br. J. Pharmacol., 120, 429-438 (1997).
(1) Preparation of cRNA of Human α4β2 Subtype of Nicotinic Acetylcholine Receptors
The cloning of human nicotinic acetylcholine receptor (hnACh-R) α4 cDNA and hnAC-R β2 cDNA were performed, in accordance with the conventional manners, by synthesizing the each DNA primers corresponding to the sequences of hnACh-R α4 cDNA and hnACh-R β2 cDNA [Monteggia L. M. et al., Gene, 155, 189-193 (1995); and Anand R., & Lindstrom J., Nucl. Acids Res., 18, 4272 (1990)], and obtained hnACh-R α4 cDNA and hnACh-R β2 cDNA by polymerase chain reaction (PCR), respectively. The obtained hnACh-R α4 cDNA and hnACh-R β2 cDNA were inserted to the cRNA expression vector (pSP64 polyA) having SP6 RNA promoter to construct hnACh-R α4/pSP64 polyA and hnACh-R β2/pSP64 polyA, respectively. After cutting from expression vector by restriction enzyme (EcoRI), transcription was performed by affecting SP6 RNA polymerase in the presence of cap analogues to obtain hnACh-R α4 cRNA and hnACh-R β2 cRNA, respectively.
(2) Expression of Human α4β2 Subtype Nicotinic Acetylcholine Receptors in Xenopus oocytes
Oocytes were purchased from Kitanihonseibutsukyohzai Co., Ltd., which were already enucleated from Xenopus laevis, and used in this experiment.
The oocytes were treated with collagenase (Sigma type I; 1 mg/ml) in calcium-free modified Birth's solution (88 mM of NaCl, 1 mM of KCl, 2.4 mM of NaHCO3, 0.82 mM of MgSO4, 15 mM of HEPES, pH 7.6) under gently stirring at room temperature for 90 minutes, and washed out the enzyme from the tissue. Then, oocytes were separated from ovarian follicle by tweezers, and isolated oocytes were placed in antibiotics containing modified Birth's solution (88 mM of NaCl, 1 mM of KCl, 2.4 mM of NaHCO3, 0.82 mM of MgSO4, 15 mM of HEPES, pH 7.6, and 0.1 v/v % of mixture solution containing of penicillin and streptomycin for incubation; Sigma Co.). […] In oocytes, heterogeneous quintuple [(α4)2(β2)3] was composed by translation of injected cRNAs, and ion channel receptors were constructed on cell membrane.
(3) Agonist Activities at Human α4β2 Subtype of Nicotinic Acetylcholine Receptors
The recordings of responses at human α4β2 subtype of nicotinic acetylcholine receptors by means of membrane potential holding method were performed as follow. […] The membrane electric potentials were held at −50 mV by mean of the two electric membranes potential holding method (CEZ-1250; Nihon Kohden Co.). Test compounds were added to the perfusion solution, and recorded the peak strength of induced inward current. In order to normalize the responses of test compounds, the responses with acetylcholine (Ach) were recorded before and after application of the test compounds. Generally in the oocytes just after isolated, the response of intrinsic muscarinic acetylcholine receptors, which is inward electric current caused by activation of calcium dependence chloride ion channels with increase of the intracellular calcium concentration by stimulation of receptors, is observed.

SMILES	control % by response at 100 μM of the test compounds
N=C1NCCCN1CCc1ccc(Cl)nc1 [Compound 12, 1-[2-(6-chloro-3-pyridyl)ethyl]-2-imino-1,2,3,4,5,6-hexahydro-pyrimidine]	(8%)
Nc1nccn1CCc1cnccn1 [Compound 31, 2-amino-1-[2-(2-pyrazinyl)ethyl]imidazole]	(15%)

same assay, conditions: Xenopus oocytes, held at −50 mV, peak inward current; read-out: Agonist activity (ED50)

SMILES	EC50 [µM]
Nc1nccn1CCc1ccnnc1 [Compound 34, 2-amino-1-[2-(4-pyridazinyl)ethyl]imidazole]	170
Nc1nccn1CCc1cccnc1 [Compound 14, 2-amino-1-[2-(3-pyridyl)ethyl]imidazole]	2
Nc1nccn1CCc1cncnc1 [Compound 29, 2-amino-1-[2-(5-pyrimidyl)ethyl]imidazole]	3.7
Nc1nccn1CCc1cnc(Cl)s1 [Compound 23, 2-amino-1-[2-(2-chloro-5-thiazolyl)ethyl]imidazole]	13
Nc1nccn1CCc1cccnn1 [Compound 30, 2-amino-1-[2-(3-pyridazinyl)ethyl]imidazole]	46
Nc1nccn1CCc1cncc(Br)c1 [Compound 25, 2-amino-1-[2-(5-bromo-3-pyridyl)ethyl]imidazole]	3
Cc1cncc(CCn2ccnc2N)c1 [Compound 27, 2-amino-1-[2-(5-methyl-3-pyridyl)ethyl]imidazole]	6.2
Nc1nccn1CCc1cnc(Cl)c(Cl)c1 [Compound 13, 2-amino-1-[2-(5,6-dichloro-3-pyridyl)ethyl]-imidazole]	2.4
Cc1ccc(CCn2ccnc2N)cn1 [Compound 11, 2-amino-1-[2-(6-methyl-3-pyridyl)ethyl]imidazole]	7.5
